PubChem BioAssay (NCI)
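Protocol summary: plate cells (96-well), add compound at 5 concentrations, incubate 48 h, interpolate endpoints linearly. GI50: concentration for 50% inhibition of growth. TGI: total growth inhibition.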

Columns and labels:
Experiment in all cases: NCI-60 cell line screen, 48 h
CCRF-CEM leukemia = system: CCRF-CEM leukemia
SK-MEL-28 melanoma = system: SK-MEL-28 melanoma
MCF7 breast = system: MCF7 breast
IGROV1 ovarian = system: IGROV1 ovarian
DU-145 prostate = system: DU-145 prostate
RPMI-8226 leukemia = system: RPMI-8226 leukemia
OVCAR-5 ovarian = system: OVCAR-5 ovarian
HCC-2998 colon = system: HCC-2998 colon
KM12 colon = system: KM12 colon
RXF 393 renal = system: RXF 393 renal
A549 NSCLC = system: A549 NSCLC
UACC-257 melanoma = system: UACC-257 melanoma
MOLT-4 leukemia = system: MOLT-4 leukemia
HL-60(TB) leukemia = system: HL-60(TB) leukemia
EKVX NSCLC = system: EKVX NSCLC
NCI-H460 lung = system: NCI-H460 lung
NCI-H522 lung = system: NCI-H522 lung
786-0 renal = system: 786-0 renal
SF-295 CNS = system: SF-295 CNS
SF-539 CNS = system: SF-539 CNS
OVCAR-4 ovarian = system: OVCAR-4 ovarian
UACC-62 melanoma = system: UACC-62 melanoma
HT29 colon = system: HT29 colon
K-562 leukemia = system: K-562 leukemia
NCI-H226 lung = system: NCI-H226 lung
SNB-75 CNS = system: SNB-75 CNS
SNB-19 CNS = system: SNB-19 CNS
SK-MEL-5 melanoma = system: SK-MEL-5 melanoma
MDA-MB-435 = system: MDA-MB-435
MDA-MB-231 breast = system: MDA-MB-231 breast
UO-31 renal = system: UO-31 renal
ACHN renal = system: ACHN renal
HCT-116 colon = system: HCT-116 colon
T-47D breast = system: T-47D breast
HCT-15 colon = system: HCT-15 colon
SN12C renal = system: SN12C renal
COLO 205 colon = system: COLO 205 colon
U251 CNS = system: U251 CNS
NCI/ADR-RES ovarian = system: NCI/ADR-RES ovarian
HOP-92 NSCLC = system: HOP-92 NSCLC
OVCAR-8 ovarian = system: OVCAR-8 ovarian
SK-MEL-2 melanoma = system: SK-MEL-2 melanoma
OVCAR-3 ovarian = system: OVCAR-3 ovarian
SK-OV-3 ovarian = system: SK-OV-3 ovarian
CAKI-1 renal = system: CAKI-1 renal
SF-268 CNS = system: SF-268 CNS
LOX IMVI melanoma = system: LOX IMVI melanoma
NCI-H23 lung = system: NCI-H23 lung
TK-10 renal = system: TK-10 renal
SW-620 colon = system: SW-620 colon
SR leukemia = system: SR leukemia
HOP-62 NSCLC = system: HOP-62 NSCLC
M14 melanoma = system: M14 melanoma
PC-3 prostate = system: PC-3 prostate
HS 578T breast = system: HS 578T breast
BT-549 breast = system: BT-549 breast
A498 renal = system: A498 renal
MALME-3M melanoma = system: MALME-3M melanoma

CCOn1cc(C2=C(c3c[nH]c4ccccc34)C(=O)NC2=O)c2ccccc21
GI50 (CCRF-CEM leukemia): 67.2 nM | TGI (CCRF-CEM leukemia): 19000 nM | GI50 (SK-MEL-28 melanoma): 2050 nM | TGI (SK-MEL-28 melanoma): 25300 nM | GI50 (MCF7 breast): < 14.9 nM | TGI (MCF7 breast): 1030 nM | GI50 (IGROV1 ovarian): 15800 nM | TGI (IGROV1 ovarian): > 61600 nM | GI50 (DU-145 prostate): 163 nM | TGI (DU-145 prostate): 16900 nM | TGI (RPMI-8226 leukemia): 5280 nM | GI50 (OVCAR-5 ovarian): 398 nM | TGI (OVCAR-5 ovarian): 17200 nM | GI50 (HCC-2998 colon): < 10 nM | TGI (HCC-2998 colon): < 10 nM | GI50 (KM12 colon): < 16.1 nM | TGI (KM12 colon): 2000 nM | GI50 (RXF 393 renal): < 32.5 nM | GI50 (A549 NSCLC): < 28.4 nM | TGI (A549 NSCLC): 22700 nM | GI50 (UACC-257 melanoma): 859 nM | TGI (UACC-257 melanoma): 20500 nM | GI50 (MOLT-4 leukemia): < 10 nM | TGI (MOLT-4 leukemia): 10400 nM | GI50 (HL-60(TB) leukemia): < 17.6 nM | GI50 (EKVX NSCLC): 14600 nM | TGI (EKVX NSCLC): 29900 nM | TGI (NCI-H460 lung): 15400 nM | TGI (NCI-H522 lung): > 33600 nM | TGI (786-0 renal): 15700 nM | GI50 (SF-295 CNS): 15.6 nM | TGI (SF-295 CNS): 44.3 nM | GI50 (SF-539 CNS): < 10 nM | TGI (SF-539 CNS): < 10 nM | GI50 (OVCAR-4 ovarian): 14600 nM | TGI (OVCAR-4 ovarian): > 72400 nM | GI50 (UACC-62 melanoma): < 10 nM | TGI (UACC-62 melanoma): 20300 nM | GI50 (HT29 colon): < 22.4 nM | TGI (HT29 colon): 12800 nM | GI50 (K-562 leukemia): < 13.9 nM | TGI (K-562 leukemia): > 33100 nM | GI50 (NCI-H226 lung): 1010 nM | TGI (NCI-H226 lung): 27400 nM | GI50 (SNB-75 CNS): < 28.8 nM | TGI (SNB-75 CNS): 34800 nM | GI50 (SNB-19 CNS): < 26.4 nM | TGI (SNB-19 CNS): 20500 nM | GI50 (SK-MEL-5 melanoma): < 10 nM | TGI (SK-MEL-5 melanoma): < 10 nM | GI50 (MDA-MB-435): < 10 nM | TGI (MDA-MB-435): < 14.2 nM | GI50 (MDA-MB-231 breast): 806 nM | TGI (MDA-MB-231 breast): 26400 nM | GI50 (UO-31 renal): 16900 nM | TGI (UO-31 renal): > 47400 nM | TGI (ACHN renal): 16400 nM | GI50 (HCT-116 colon): < 21.7 nM | TGI (HCT-116 colon): 4030 nM | GI50 (T-47D breast): 18500 nM | TGI (T-47D breast): > 100000 nM | TGI (HCT-15 colon): 14800 nM | GI50 (SN12C renal): 765 nM | TGI (SN12C renal): 14800 nM | GI50 (COLO 205 colon): < 43.9 nM | GI50 (U251 CNS): 488 nM | TGI (U251 CNS): 19500 nM | GI50 (NCI/ADR-RES ovarian): < 10 nM | TGI (NCI/ADR-RES ovarian): < 10 nM | GI50 (HOP-92 NSCLC): 23200 nM | TGI (HOP-92 NSCLC): 38800 nM | GI50 (OVCAR-8 ovarian): 93.5 nM | TGI (OVCAR-8 ovarian): 20300 nM | GI50 (SK-MEL-2 melanoma): 12200 nM | TGI (SK-MEL-2 melanoma): 25800 nM | GI50 (OVCAR-3 ovarian): < 11.7 nM | TGI (OVCAR-3 ovarian): < 18.2 nM | GI50 (SK-OV-3 ovarian): 62 nM | TGI (SK-OV-3 ovarian): 735 nM | GI50 (CAKI-1 renal): < 12.1 nM | TGI (CAKI-1 renal): < 30.6 nM | GI50 (SF-268 CNS): < 38.5 nM | TGI (SF-268 CNS): 25100 nM | TGI (LOX IMVI melanoma): 25900 nM | GI50 (NCI-H23 lung): < 28 nM | TGI (NCI-H23 lung): 470 nM | GI50 (TK-10 renal): 32.2 nM | TGI (TK-10 renal): 198 nM | GI50 (SW-620 colon): < 10 nM | TGI (SW-620 colon): 22700 nM | GI50 (SR leukemia): 34.3 nM | TGI (SR leukemia): 29400 nM | GI50 (HOP-62 NSCLC): < 10 nM | TGI (HOP-62 NSCLC): 18500 nM | GI50 (M14 melanoma): 54.2 nM | TGI (M14 melanoma): 17900 nM | GI50 (PC-3 prostate): < 38.9 nM | TGI (PC-3 prostate): 17300 nM

Nc1ccc(Oc2ccc(C3(c4ccc(Oc5ccc(N)c(O)c5)cc4)C4CC5C6CC7CC5C3C(C7)C6C4)cc2)cc1O
TGI (CCRF-CEM leukemia): > 100000 nM | TGI (SK-MEL-28 melanoma): > 26500 nM | TGI (IGROV1 ovarian): 4680 nM | TGI (DU-145 prostate): 3540 nM | TGI (OVCAR-5 ovarian): 5760 nM | TGI (HS 578T breast): > 100000 nM | TGI (HCC-2998 colon): 4960 nM | TGI (KM12 colon): 3850 nM | TGI (RXF 393 renal): 4500 nM | TGI (UACC-257 melanoma): 14600 nM | TGI (MOLT-4 leukemia): 4990 nM | TGI (HL-60(TB) leukemia): > 100000 nM | TGI (EKVX NSCLC): > 24100 nM | TGI (NCI-H460 lung): > 100000 nM | TGI (786-0 renal): 3400 nM | TGI (SF-539 CNS): > 21600 nM | TGI (OVCAR-4 ovarian): 5730 nM | TGI (UACC-62 melanoma): 17700 nM | TGI (K-562 leukemia): 5350 nM | TGI (SNB-19 CNS): 24200 nM | TGI (SK-MEL-5 melanoma): > 26400 nM | TGI (UO-31 renal): 8120 nM | TGI (BT-549 breast): > 31200 nM | TGI (ACHN renal): 3180 nM | TGI (HCT-15 colon): 10300 nM | TGI (SN12C renal): 3190 nM | TGI (A498 renal): 4730 nM | TGI (NCI/ADR-RES ovarian): > 100000 nM | TGI (HOP-92 NSCLC): 5020 nM | TGI (SK-MEL-2 melanoma): 5640 nM | TGI (CAKI-1 renal): 6720 nM | TGI (TK-10 renal): > 26000 nM | TGI (MALME-3M melanoma): > 24200 nM | TGI (SW-620 colon): > 100000 nM | TGI (SR leukemia): > 100000 nM | TGI (PC-3 prostate): 3480 nM

c1ccc2cc(Cn3c(-c4ccc5ccccc5c4)[n+](Cc4ccc5ccccc5c4)c4ccccc43)ccc2c1
GI50 (SK-MEL-28 melanoma): 362 nM | TGI (SK-MEL-28 melanoma): 1280 nM | GI50 (DU-145 prostate): 399 nM | TGI (DU-145 prostate): 1520 nM | GI50 (OVCAR-5 ovarian): 410 nM | TGI (OVCAR-5 ovarian): 1590 nM | GI50 (HCC-2998 colon): 365 nM | TGI (HCC-2998 colon): 1470 nM | GI50 (KM12 colon): 269 nM | TGI (KM12 colon): 869 nM | GI50 (HL-60(TB) leukemia): 293 nM | TGI (HL-60(TB) leukemia): 944 nM | GI50 (SF-539 CNS): 381 nM | TGI (SF-539 CNS): 1520 nM | GI50 (UACC-62 melanoma): 277 nM | TGI (UACC-62 melanoma): 890 nM | GI50 (NCI-H226 lung): 481 nM | TGI (NCI-H226 lung): 2460 nM | GI50 (SNB-75 CNS): 182 nM | TGI (SNB-75 CNS): 827 nM | GI50 (MDA-MB-435): 296 nM | TGI (MDA-MB-435): 1030 nM | GI50 (MDA-MB-231 breast): 218 nM | TGI (MDA-MB-231 breast): 961 nM | GI50 (UO-31 renal): 781 nM | TGI (UO-31 renal): 2300 nM | GI50 (ACHN renal): 752 nM | TGI (ACHN renal): 2040 nM | GI50 (HCT-116 colon): 193 nM | TGI (HCT-116 colon): 598 nM | GI50 (HOP-92 NSCLC): 85.2 nM | TGI (HOP-92 NSCLC): 416 nM | GI50 (MALME-3M melanoma): 215 nM | TGI (MALME-3M melanoma): 649 nM | GI50 (SW-620 colon): 310 nM | TGI (SW-620 colon): 1220 nM | GI50 (PC-3 prostate): 228 nM | TGI (PC-3 prostate): 763 nM
